We go through two compounds from patent US20150018325A1, “METHOD FOR LATE POST COITAL CONTRACEPTION USING ULIPRISTAL ACETATE” (LABORATOIRE HRA-PHARMA, priority 2010, published 2015).

Where “and” joins values, the source holds several entries; their conditions need not be identical. Identical values can stand only once. Entries after “also recorded” stand apart in the source; their conditions may differ.

For assay [1], the system named is women presenting 0-120 hours after unprotected intercourse. As to the kind of experiment: Prospective multicenter, single-blind randomized study of ulipristal acetate versus levonorgestrel as emergency contraception 0-120 hours after unprotected intercourse (Example 2). The class given is in vivo. As to the method:
This was a prospective, single-blind (subject and sponsor blind, investigator not blind), randomized, multicenter, 2-arm parallel comparative study designed to evaluate the efficacy of a single dose of ulipristal acetate (30 mg tablets) compared to levonorgestrel (1.5 mg) administered for EC within 120 hours after unprotected intercourse. It was performed in 10 centers in Europe and 25 centers in the US. Women ([…]), with regular menstrual cycles (between 24 and 35 days and intra-individual variations less than or equal to 5 days), who presented for EC within 120 hours after unprotected intercourse at a participating study site and who met the inclusion/exclusion criteria were enrolled into the study after they signed informed consent form. Subjects were excluded from the study in case of ongoing pregnancy or breast-feeding or current use of hormonal contraception or IUD. The study medication (ulipristal acetate 30 mg or levonorgestrel 1.5 mg) was administered according to a random allocation procedure generated electronically. Treatment was administered orally immediately after all eligibility criteria (including negative urine pregnancy test) had been verified. At follow-up visit (5-7 days after expected onset of menses) a high-sensitivity urine pregnancy test was systematically performed. If the urine pregnancy was positive, this was confirmed by a serum β-hCG test. The pre-treatment serum specimen was also assayed for β-hCG to verify whether the pregnancy pre-dated intake of the study drug. Confirmed pregnancies were further evaluated by scrum quantitative hCG(s) and transvaginal ultrasound(s) to determine the estimated fertilization date. Based on previous similar clinical trials, pregnancy rates in the ulipristal acetate and levonorgestrel group were expected to be 1% and 1.7% respectively. […] For this comparison, the non-inferiority margin was set to 1.6 in odds ratio (a non-inferiority margin of 1.6 in odds ratio is equivalent to a non-inferiority margin of 1% in percent point with an assumed pregnancy rate with levonorgestrel of 1.7%) with a type I error rate of 5% (two-sided) and 85% power. In order to compensate for an anticipated lost to follow-up rate of 10%, 910 patients per group had to be included in the 0-72 hour time interval. Furthermore, recruitment of patients requesting emergency contraception between 72 h and 120 h was estimated to represent 1 out of 10 patients. Therefore, taking into account recruitment in the 72-120 h interval, 1022 patients per group were to be randomized for a total of 2044 patients. […] In order to ensure unbiased evaluation of pregnancy data, an independent, autonomous DSMB composed of two experts in the field of gynecology, one methodologist and one expert in ethical questions was established to review incidence of pregnancy with respect to unacceptability threshold and give recommendations during the course of the clinical trial. In addition, the DSMB assessed whether each pregnancy was “compatible” or “not compatible” with treatment failure based on available data.

The subject of assay [2] is women presenting 48-120 hours after unprotected intercourse. In words: Prospective multicenter, open label study of ulipristal acetate as emergency contraception 48-120 hours after unprotected intercourse (Example 1). It is filed as in vivo. Conditions: for Observed Pregnancy Rate (%): single 30 mg dose. The protocol: Women 18 and older who presented for emergency contraception at family planning clinics located in the United States, 48-120 hours after UPI and who met the inclusion/exclusion criteria were enrolled into the study after signing the IRB approved informed consent. The inclusion criteria were regular menstrual cycles 24-35 (+/−5) days in length, no current use of hormonal contraception, willingness not to use hormonal contraception until study completion, and agreement to use barrier methods of contraception from enrollment to study completion. Exclusion criteria included pregnancy, breastfeeding, IUD, tubal ligation or partner vasectomy, and uncertainty about recent menstrual history.
A total of up to three visits were scheduled over the course of the study. The first visit, considered Day 1, included the screening and treatment phases. A high sensitivity urine pregnancy test (level of detection 20 mIU/ml) was performed and a blood sample was taken and stored for later serum quantitative β-hCG testing to exclude pre-existing pregnancy if a pregnancy was detected during the study.
Women were provided daily diaries in which to record further acts of intercourse, contraception used, vaginal spotting or bleeding, concomitant medication and adverse events during study duration.
At follow-up visit (5-7 days after expected onset of menses) a high-sensitivity urine pregnancy test was systematically performed. If the urine pregnancy was positive, this was confirmed by a serum β-hCG test. The pre-treatment serum specimen was also assayed for β-hCG to verify whether the pregnancy pre-dated intake of the study drug. Confirmed pregnancies were further evaluated by scrum quantitative hCG(s) and transvaginal ultrasound(s) to determine the estimated fertilization date.
Women could enroll in the study more than once but they must have completed prior study participation before re-enrolling.
The primary efficacy measurement was the pregnancy rate, defined as the number of pregnancies after administration of ulipristal acetate for EC divided by the number of women treated. The primary efficacy analysis compared this pregnancy rate to the pregnancy rate that would have been expected in the absence of EC treatment, which was calculated according to Trussell's method (Trussell et al, 1998) using the pooled recognizable set of conception probabilities and the estimated cycle day of UPI based on self-reported date of last menstrual period, cycle length and date of UPI.
The main secondary efficacy analysis compared the upper bound of the 95% confidence interval of the observed pregnancy rate to a clinical irrelevance threshold of 4%. This threshold corresponds to a reduction by half of the expected 8% pregnancy rate in the absence of contraception as observed in previous international studies (Von Hertzen et al, 1998; Piaggio, 1999; Von Hertzen et al, 2002). The study was to be considered a success only if both the primary efficacy and the main secondary analyses were conclusive. Other secondary analyses included calculation of the prevented fraction, defined as the number of pregnancies prevented (expected minus observed) divided by the number of pregnancies expected, and analysis of trend in pregnancy rates over time (by 24-hour interval) using a logistic regression model.
The population analyzed for primary efficacy excluded women who were lost to follow-up and women ages 36 and older due to reduced fertility in this age category based upon FDA guidance. Further participations in the study allowed by protocol were also excluded from primary efficacy evaluation, as well as pregnancies that were determined as not compatible with study drug failure by a Data Safety Monitoring Board (DSMB) consisting of independent experts.
Study enrolment was stopped once 1200 subjects meeting the criteria for the primary efficacy analysis had completed the study.

The subject of assay [3] is women treated with ulipristal acetate in the two trials. In words: Pooled efficacy analysis of Example 1 and Example 2 (Example 3). It is filed as in vivo. Conditions: mITT pooled population. From the text:
When the efficacy data of women treated with ulipristal acetate in the two trials (Example 1 and Example 2) are grouped in a pooled analysis, further evidence of the efficacy of the method is provided.

For assay [4] the following is noted: used within 72 hours of UPI; cited from earlier work.
Where [5] appears, read: 0-72 h mITT, ulipristal acetate 30 mg or levonorgestrel 1.5 mg single oral dose.
[6] abbreviates: >24 to <=48 hours relative to the previous 24 hrs time interval, mITT.
[7] abbreviates: >48 to <=72 hours relative to the previous 24 hrs time interval, mITT.
[8] abbreviates: >72 to <=96 hours relative to the previous 24 hrs time interval, mITT.
[9] abbreviates: mITT, unprotected intercourse within 72 hours of EC intake (p=0.253).
Setting [10] is: mITT, unprotected intercourse within 120 hours of EC intake (p=0.127).
Setting [11] is: 48-72 h after UPI, mITT population.
[12] abbreviates: >72-96 h after UPI, mITT population.
Setting [13] is: >96-120 h after UPI, mITT population.

For `C#C[C@]1(O)CC[C@H]2[C@@H]3CCC4=CC(=O)CC[C@@H]4[C@H]3CC[C@@]21CC` [levonorgestrel], the “Pregnancy Rate n” value worked out at 22 in assay [1] (0-72 h mITT (n = 1694)), 25 in assay [1] (0-120 h mITT (n = 1899)) and 3 in assay [1] (72-120 h mITT (n = 203)). For the same compound, the “Pregnancy Rate (%)” value in assay [1] (setting [5]) came out at 2.59%; in assay [1] (0-72 h mITT, ulipristal acetate 30 mg or levonorgestrel 1.5 mg single oral dose, listed as Levonorgestrel) it was 2.6%; in assay [1] (0-120 h mITT) it was 2.6%; in assay [1] (72-120 h mITT), 2.8%. The Odds ratio is 0.73 in assay [1] (setting [6]); 1.17 in assay [1] (setting [7]); 1.08 in assay [1] (setting [8]); 1.11 in assay [1] (>96 to <=120 hours relative to the previous 24 hrs time interval, mITT). The prevented expected pregnancies was 52.2% in assay [1] (setting [9]) and 52.8% in assay [1] (setting [10]).

On to `CC(=O)O[C@]1(C(C)=O)CC[C@H]2[C@@H]3CCC4=CC(=O)CCC4=C3[C@@H](c3ccc(N(C)C)cc3)C[C@@]21C` [ulipristal acetate, 17α-acetoxy-11β-[4-N,N-dimethylamino-phenyl)-19-norpregna-4,9-diene-3,20-dione], for which the “Pregnancy Rate n” value in assay [1] (0-72 h mITT (n = 1694)) is on record as 15; in assay [1] (0-120 h mITT (n = 1899)) it was 15; in assay [1] (72-120 h mITT (n = 203)) it was “no pregnancy was observed”; in assay [1] (72-120 h mITT (n = 203), listed as Ulipristal acetate) it was 0. The “Pregnancy Rate (%)” value is 1.78% in assay [1] (setting [5]); 1.8% in assay [1] (0-72 h mITT, ulipristal acetate 30 mg or levonorgestrel 1.5 mg single oral dose, listed as Ulipristal acetate); 1.60% in assay [1] (0-120 h mITT); 1.6% in assay [1] (0-120 h mITT, listed as Ulipristal acetate); 0.0% in assay [1] (72-120 h mITT); 1.6% in assay [1] (>0 to <=24 hours from unprotected intercourse to treatment, mITT). Also, the “Pregnancy Rate (%)” value was 2.13% and 2.1% in assay [1] (>24 to <=48 hours from unprotected intercourse to treatment, mITT); 1.48% and 1.5% in assay [1] (>48 to <=72 hours from unprotected intercourse to treatment, mITT). Besides, the Odds ratio stood at 1.33 in assay [1] (setting [6]), 0.69 in assay [1] (setting [7]) and 0.00 in assay [1] (setting [8]). Besides, the values for the prevented expected pregnancies in assay [1] (setting [9]) and in assay [1] (setting [10]) were 68.1% and 72.2%, respectively. Further, the “pregnancies prevented compared to the expected pregnancy rate, ulipristal acetate versus levonorgestrel” value in assay [1] (p<0.05 one-sided randomization test within 120 hours, p<0.05 two-sided between 72 and 120 hours, mITT) is listed as “significantly more pregnancies were prevented with ulipristal acetate than levonorgestrel”. The “Effectiveness (Prevented Fraction)” value is 61.9% in assay [2] (setting [11]); 57.9% in assay [2] (setting [12]); 75.0% in assay [2] (setting [13]); 62.3% in assay [2] (All (48-120 h after UPI), mITT population, expected pregnancies by Trussell's method). Also, the “Observed Pregnancy Rate (%)” value in assay [2] (setting [11]) is 2.3%; in assay [2] (setting [12]), 2.1%; in assay [2] (setting [13]) it was 1.3%; in assay [2] (All (48-120 h after UPI), mITT / Primary Efficacy Population), 2.1%. Also, the observed pregnancy rate in assay [2] (Safety Population of 1533 women, 48-120 h after UPI) is given as 1.9%. For the same compound, the “pregnancies detected at follow-up” value in assay [2] (all women enrolled, before DSMB exclusion of 3 pregnancies) came out at 29. Further, in assay [2] (by 24-hour interval, 48-120 h after UPI, p=0.2490), the “linear trend of pregnancy rates over time (logistic regression model)” value was “no evidence of change in efficacy over time”. In addition, the “Overall observed pregnancy rate (%) (pooled)” value in assay [3] (0-24 h) came out at 1.60%; in assay [3] (>24-48 h) it was 2.07%; in assay [3] (>48-72 h), 2.16%; in assay [3] (>72-96 h), 1.76%; in assay [3] (>96-120 h), 1.04%. In assay [4], the “efficacy for preventing pregnancy compared with levonorgestrel” value was “as effective as levonorgestrel; also recorded: as efficacious as levonorgestrel”.
